The results in this text go back to patent US20180105840A1, “PROCESS FOR INDUSTRIAL PRODUCTION OF CHIRAL-1,1-DIFLUORO-2-PROPANOL” (PUBLIC UNIVERSITY CORPORATION TOYAMA PREFECTURAL UNIVERSITY, priority 2015, published 2018).

In one assay the test system is Ogataea polymorpha strain NBRC0799-derived carbonyl reductase. Kind of assay: Reactivity of purified Ogataea polymorpha strain NBRC0799-derived carbonyl reductase to substrates (reduction reaction, NADH decrease at 340 nm). The class given is biochemical. The note with it: (a) Reduction reaction; substrate 50 mM, NADH 0.1 mM, 168 mM sodium phosphate buffer pH 6.0, 30° C.; enzyme activity with acetone as substrate defined as 100%. As for the experimental part:
For enzyme activity measurement, NADH was added at a final concentration of 0.1 mM to 168 mM sodium phosphate buffer (pH 6.0) containing an enzyme or a microorganism, and 1,1-difluoroacetone was added at a final concentration of 50 mM to this reaction solution to initiate the reaction (reaction solution volume: 1 mL). The reaction was conducted at 30° C., and decreases in NADH were monitored with a spectrophotometer (V-630BIO, JASCO Corporation, Japan) as changes in absorbance at 340 nm. It should be noted that the enzyme activity was determined assuming that the amount of enzyme required to catalyze the oxidation of 1 μmol NADH per minute was defined as 1 U (unit).
To 168 mM sodium phosphate buffer (pH 6.0) containing the enzyme purified from Ogataea polymorpha strain NBRC0799, NADH was added at a final concentration of 0.1 mM, and the substrates indicated in Table B below were each added at a final concentration of 50 mM to this reaction solution to initiate the reaction (reaction solution volume: I mL). The reaction was conducted at 30° C., and decreases in NADH were measured with a spectrophotometer (V-630BIO, JASCO Corporation, Japan) as changes in absorbance at 340 nm.
Relative activity refers to the ratio of enzyme activity (conversion speed) for each substrate in comparison with the enzyme activity when using acetone as a substrate, which is defined to be 100%. When 1,1-difluoroacetone or 1,1,1-trifluoroacetone is provided as a substrate, the conversion speed per se of the enzyme is reduced (many hours are required to complete the reaction). In the case of acetone, its two methyl groups are equal, so that acetone will be captured by a recognition site in the enzyme without distinction between these two methyl groups. However, in the case of 1,1-difluoroacetone and 1,1,1-trifluoroacetone, their capture by an active site in the enzyme would require recognition between a fluoromethyl group and a methyl group, so that the speed of their capture becomes slower. On the other hand, in the case of 1,3-difluoroacetone, the fluorine atoms introduced thereinto would alter electronegativity and so on, when compared to acetone.
Take `CC(=O)C(F)(F)F` [1,1,1-Trifluoroacetone]: the “Relative Activity (%)” value came out at 50%.

Take `CC(=O)C(F)F` [1,1-Difluoroacetone]: the “Relative Activity (%)” value came out at 58%.

As for `O=C(CF)CF` [1,3-Difluoroacetone], the “Relative Activity (%)” value is given as 52%.

On to `CCC(C)=O` [2-Butanone], for which the “Relative Activity (%)” value is reported as 132%.

As to `CC(=O)CC(F)(F)F` [4,4,4-Trifluoro-2-butanone], the “Relative Activity (%)” value is 228%.

Turning to `CC=O` [Acetaldehyde], the “Relative Activity (%)” value was 330%.

As for `CC(C)=O` [Acetone, reference compound], the “Relative Activity (%)” value amounted to 100%.

Consider `CCCC=O` [Butyraldehyde], for which the “Relative Activity (%)” value stood at 193%.

For the molecule `CC(=O)CF` [Fluoroacetone], the “Relative Activity (%)” value is on record as 211%.

`CCC=O` [Propionaldehyde]: the “Relative Activity (%)” value was determined as 141%.

Still in this assay, the particulars now being: substrate 50 mM, NADH 0.1 mM, pH 6.0, 30° C.
For `CC(=O)C(F)(F)F` [1,1,1-Trifluoroacetone], the “conversion speed of the enzyme in comparison with acetone as a substrate” value is “reduced”.

Regarding `CC(=O)C(F)F` [1,1-Difluoroacetone], the “conversion speed of the enzyme in comparison with acetone as a substrate” value is “reduced”.
